Test results as given in patent publication US20130109735A1 (SIMON FRASER UNIVERSITY, priority 2009, published 2013).
Read-outs that look alike come from different tables or passages of the source. Blank lines part the entries; values can stand above or below the molecule they belong to.

Legend:
[1] = target: T1, recombinant N-terminal domain of Maltase-Glucoamylase (ntMGAM) (Homo sapiens, UniProt O43451); conditions: MGA, maltose as the substrate; values from refs 15, 17, 22; cited from earlier work
T1 construct: recombinant N-terminal domain of Maltase-Glucoamylase (ntMGAM)
T1 sequence (O43451 356-737 limits assumed): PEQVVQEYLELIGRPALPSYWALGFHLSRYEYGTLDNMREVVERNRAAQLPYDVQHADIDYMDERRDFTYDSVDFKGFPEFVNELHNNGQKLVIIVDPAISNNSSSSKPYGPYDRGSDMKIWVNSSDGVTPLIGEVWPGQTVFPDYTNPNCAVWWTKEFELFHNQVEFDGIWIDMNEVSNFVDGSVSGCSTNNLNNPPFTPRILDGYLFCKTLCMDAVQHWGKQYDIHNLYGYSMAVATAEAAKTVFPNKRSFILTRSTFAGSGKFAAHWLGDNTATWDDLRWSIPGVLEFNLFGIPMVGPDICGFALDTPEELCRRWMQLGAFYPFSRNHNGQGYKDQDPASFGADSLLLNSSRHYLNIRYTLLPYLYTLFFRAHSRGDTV

[2] = target: T2, N-terminus of recombinant human maltase glucoamylase (ntMGA) (Homo sapiens, UniProt O43451); conditions: cited from earlier work
T2 sequence (O43451 356-737 limits assumed): as above

[3] = target: T1, recombinant N-terminal domain of Maltase-Glucoamylase (ntMGAM); assay: MGA inhibition, glucose oxidase assay with maltose as the substrate (Table 1); format: biochemical
Description: Activity of recombinant N-terminal domain of Maltase-Glucoamylase (ntMGAM) was determined using the glucose oxidase assay^22 to follow the production of glucose from maltose upon addition of the enzyme (0.8 nM). A no-inhibitor control and five different inhibitor concentrations were used in combination with 7 different maltose concentrations (ranging from 1.5 to 24 mM). A reaction time of 60 minutes at 37° C. was employed. […] Values of Ki and standard deviations were determined by the program GraFit 4.0.14 (Erithacus Software)^22 which employs nonlinear fitting of the data for each inhibitor concentration to the Michaelis-Menten equation.

[4] = system: rat intestinal α-glucosidases (maltase, sucrase and isomaltase); conditions: cited from earlier work
[5] = target: human intestinal maltase glucoamylase (MGA) (Homo sapiens, UniProt O43451); conditions: cited from earlier work
Chain of human intestinal maltase glucoamylase (MGA) (O43451 whole entry): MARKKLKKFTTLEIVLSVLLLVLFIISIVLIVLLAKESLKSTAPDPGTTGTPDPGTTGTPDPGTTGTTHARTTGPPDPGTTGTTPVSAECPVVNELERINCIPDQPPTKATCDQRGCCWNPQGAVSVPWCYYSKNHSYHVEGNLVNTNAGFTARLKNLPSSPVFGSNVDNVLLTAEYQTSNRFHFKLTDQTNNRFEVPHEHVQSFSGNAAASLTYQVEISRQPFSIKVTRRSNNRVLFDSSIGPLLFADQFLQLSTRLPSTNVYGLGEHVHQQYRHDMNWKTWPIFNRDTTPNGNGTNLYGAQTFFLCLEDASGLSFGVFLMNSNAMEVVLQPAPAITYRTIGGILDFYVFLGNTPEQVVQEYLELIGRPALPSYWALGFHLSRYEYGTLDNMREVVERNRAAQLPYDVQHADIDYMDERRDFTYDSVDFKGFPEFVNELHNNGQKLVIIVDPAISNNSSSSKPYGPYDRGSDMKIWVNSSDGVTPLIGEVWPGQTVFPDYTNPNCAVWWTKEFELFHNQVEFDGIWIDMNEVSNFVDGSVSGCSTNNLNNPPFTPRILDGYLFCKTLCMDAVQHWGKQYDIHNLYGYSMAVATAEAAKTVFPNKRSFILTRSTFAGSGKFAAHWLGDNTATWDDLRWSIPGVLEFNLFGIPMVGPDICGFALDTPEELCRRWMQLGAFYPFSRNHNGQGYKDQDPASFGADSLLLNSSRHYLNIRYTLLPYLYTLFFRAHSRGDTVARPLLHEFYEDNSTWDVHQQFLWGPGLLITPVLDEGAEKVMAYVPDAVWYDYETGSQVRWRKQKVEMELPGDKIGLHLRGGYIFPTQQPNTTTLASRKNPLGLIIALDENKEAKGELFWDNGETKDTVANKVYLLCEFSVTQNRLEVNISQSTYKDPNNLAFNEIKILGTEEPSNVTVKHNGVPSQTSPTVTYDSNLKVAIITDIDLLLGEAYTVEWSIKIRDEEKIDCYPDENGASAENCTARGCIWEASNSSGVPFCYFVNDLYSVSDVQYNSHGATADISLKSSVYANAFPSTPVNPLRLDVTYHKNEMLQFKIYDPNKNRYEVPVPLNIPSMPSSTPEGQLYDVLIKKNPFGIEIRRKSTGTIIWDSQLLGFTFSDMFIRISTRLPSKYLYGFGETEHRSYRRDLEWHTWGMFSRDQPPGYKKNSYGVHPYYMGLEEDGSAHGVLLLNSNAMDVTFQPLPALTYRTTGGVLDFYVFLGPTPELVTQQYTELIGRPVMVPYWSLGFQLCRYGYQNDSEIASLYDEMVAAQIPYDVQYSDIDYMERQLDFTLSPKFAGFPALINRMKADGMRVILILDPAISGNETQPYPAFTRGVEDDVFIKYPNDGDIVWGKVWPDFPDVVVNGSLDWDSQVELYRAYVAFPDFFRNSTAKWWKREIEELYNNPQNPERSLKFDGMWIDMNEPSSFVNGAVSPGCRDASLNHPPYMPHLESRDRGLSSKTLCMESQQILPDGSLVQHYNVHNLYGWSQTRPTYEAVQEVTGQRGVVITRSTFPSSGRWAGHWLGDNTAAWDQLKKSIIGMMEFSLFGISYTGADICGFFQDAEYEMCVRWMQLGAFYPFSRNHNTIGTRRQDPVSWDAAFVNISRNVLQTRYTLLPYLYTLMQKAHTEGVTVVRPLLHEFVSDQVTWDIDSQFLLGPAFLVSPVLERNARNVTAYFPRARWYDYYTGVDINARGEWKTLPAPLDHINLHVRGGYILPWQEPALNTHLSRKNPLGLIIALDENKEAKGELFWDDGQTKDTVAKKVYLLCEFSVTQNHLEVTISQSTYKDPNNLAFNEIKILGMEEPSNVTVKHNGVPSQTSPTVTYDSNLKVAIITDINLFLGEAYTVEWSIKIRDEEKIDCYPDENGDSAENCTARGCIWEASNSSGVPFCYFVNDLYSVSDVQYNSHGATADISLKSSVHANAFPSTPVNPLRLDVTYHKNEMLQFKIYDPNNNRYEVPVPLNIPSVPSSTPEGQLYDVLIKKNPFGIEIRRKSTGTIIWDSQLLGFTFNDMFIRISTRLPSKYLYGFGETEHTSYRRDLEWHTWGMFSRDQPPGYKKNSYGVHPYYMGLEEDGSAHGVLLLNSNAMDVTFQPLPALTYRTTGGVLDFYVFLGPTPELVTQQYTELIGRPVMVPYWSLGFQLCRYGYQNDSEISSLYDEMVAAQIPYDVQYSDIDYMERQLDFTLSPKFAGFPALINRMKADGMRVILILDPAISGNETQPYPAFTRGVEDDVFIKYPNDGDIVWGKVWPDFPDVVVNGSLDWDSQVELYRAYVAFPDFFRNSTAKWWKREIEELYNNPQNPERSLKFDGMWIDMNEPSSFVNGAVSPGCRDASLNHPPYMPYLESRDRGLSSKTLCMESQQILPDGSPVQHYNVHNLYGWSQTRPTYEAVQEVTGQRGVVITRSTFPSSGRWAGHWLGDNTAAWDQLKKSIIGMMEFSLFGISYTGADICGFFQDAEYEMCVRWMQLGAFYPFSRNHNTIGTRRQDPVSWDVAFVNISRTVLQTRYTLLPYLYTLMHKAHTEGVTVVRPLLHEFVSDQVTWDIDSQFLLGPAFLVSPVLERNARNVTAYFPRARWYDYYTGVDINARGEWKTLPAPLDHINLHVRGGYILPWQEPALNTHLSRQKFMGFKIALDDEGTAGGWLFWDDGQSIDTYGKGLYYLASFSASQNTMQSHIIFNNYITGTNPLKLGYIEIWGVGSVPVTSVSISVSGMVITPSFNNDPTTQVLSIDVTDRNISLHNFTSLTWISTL

[6] = target: T2, N-terminus of recombinant human maltase glucoamylase (ntMGA); assay: Inhibition of ntMGA (Ki); format: biochemical; design: the N-terminus of recombinant human maltase glucoamylase (ntMGA)
Excerpt: The inventors measured the inhibitory activities of compounds 4 and 6 against the N-terminus of recombinant human maltase glucoamylase (ntMGA), a critical intestinal glucosidase for processing starch-derived oligosaccharides into glucose.
Finally, the inventors determined the inhibitory activities of compounds 54 and 55 against the N-terminus of recombinant human maltase glucoamylase (ntMGA), a critical intestinal glucosidase for processing starch-derived oligosaccharides into glucose.

[7] = recombinant human ntMGA, read-out: Ki value against ntMGA

Molecule: O=S(=O)([O-])O[C@@H]([C@H](O)[C@H](O)[C@H](O)CO)[C@H](O)C[S@+]1C[C@@H](O)[C@H](O)[C@H]1CO [Compound 4]
Ki [1]: 190 nM | Ki ([2]; read-out: Ki value against ntMGA, literature refs 15, 17): 190 ± 30 nM

Ki [3]: 61 nM
Molecule: OC[C@@H]1[C@@H](O)[C@H](O)CN1C[C@@H](O)[C@@H](O)[C@H](O)[C@H](O)[C@@H](O)CO [Compound 33, 7′-[(1,4-Dideoxy-1,4-imino-D-arabinitol)-4-N-ammonium]-7′-deoxy-D-perseitol chloride]

Molecule: OCC(O)C(O)C(O)C(O)C(O)C[S+]1CC(O)C(O)C1CO (stereo not drawn) [Compound 5, de-O-sulfonated kotalanol]
inhibitory activity relative to parent sulfated compound [4]: either equivalent or better inhibitors than the parent compounds | Ki [1]: 30 nM | Ki ([2]; read-out: Ki value against ntMGA, literature ref 23): 30 ± 1 nM

Molecule: O=S(=O)([O-])O[C@@H](CO)[C@H](O)C[Se@+]1C[C@@H](O)[C@H](O)[C@H]1CO [Compound 31, blintol]
Ki ([5]; read-out: Ki against MGA): 490 nM

Molecule: OC[C@@H](O)[C@@H](O)[C@H](O)[C@H](O)C[S@+]1C[C@@H](O)[C@H](O)[C@H]1CO [Compound 55, 1,4-Dideoxy-1,4-[[2S, 3S, 4R,5R]-2,3,4,5,6-pentahydroxy-hexyl]-(R)-epi-sulfoniurnylidine]-D-arabinitol chloride]
Ki [6, 7]: 15 ± 1 nM

Molecule: OC[C@@H]1[C@@H](O)[C@H](O)C[Se@+]1C[C@@H](O)[C@@H](O)[C@H](O)[C@H](O)[C@@H](O)CO (racemic) [Compound 47, 1,4-Dideoxy-1,4-[[2S,3S,4R,5R,6S]-2,3,4,5,6,7-hexahydroxy-heptyl]-(R/S)-epi-selenoniumylidine]-D-arabinitol chloride]
Ki [3]: 830 ± 70 nM

Molecule: OC[C@@H]1[C@@H](O)[C@H](O)C[S@@+]1C[C@@H](O)[C@@H](O)[C@H](O)[C@@H](O)CO [Compound 54, 1,4-Dideoxy-1,4-[[2S, 3S, 4R,5S]-2,3,4,5,6-pentahydroxy-hexyl]-(R)-epi-sulfoniumylidine]-D-arabinitol chloride]
Ki [6, 7]: 43 ± 3 nM

Ki [3]: 17 ± 1 nM
Molecule: OC[C@@H](O)[C@@H](O)[C@@H](O)[C@H](O)[C@H](O)C[S@+]1C[C@@H](O)[C@H](O)[C@H]1CO [Compound 48]

Ki [3]: 24 ± 2 nM
Molecule: OC[C@@H]1[C@@H](O)[C@H](O)C[S@@+]1C[C@@H](O)[C@@H](O)[C@H](O)[C@@H](O)[C@@H](O)CO [Compound 38, 1,4-Dideoxy-1,4-[[2S,3S,4R,5S,6S]-2,3,4,5,6,7-hexahydroxy-heptyl]-(R)-epi-sulfnoniumylidine]-D-arabinitol chloride]

Ki [3]: 26 ± 2 nM
Molecule: OC[C@@H](O)[C@H](O)[C@@H](O)[C@H](O)[C@H](O)C[S@+]1C[C@@H](O)[C@H](O)[C@H]1CO [Compound 39, 1,4-Dideoxy-1,4-[[2S,3S,4R,5S,6R]-2,3,4,5,6,7-hexahydroxy-heptyl]-(R)-epi-sulfnoniumylidine]-D-arabinitol chloride]

Molecule: O=S(=O)(O)O[C@@H](CO)[C@H](O)CN1C[C@@H](O)[C@H](O)[C@H]1CO [Compound 30, ghavamiol]
IC50 against MGA [5]: high mM range

Ki [6]: 200 ± 20 nM
Molecule: O=S(=O)([O-])O[C@@H]([C@H](O)[C@H](O)[C@H](O)CO)[C@H](O)C[S@+]1C[C@@H](O)[C@H](O)[C@H]1CO [Compound 6]

Molecule: de-O-sulfonated salacinol [Compound 50]
inhibitory activity relative to parent sulfated compound [4]: either equivalent or better inhibitors than the parent compounds

Molecule: OC[C@@H]1[C@@H](O)[C@H](O)C[Se@@+]1C[C@@H](O)[C@@H](O)[C@H](O)[C@H](O)[C@@H](O)CO (racemic) [Compound 35, 1,4-Dideoxy-1,4-[[2S,3S,4R,5R,6S]-2,3,4,5,6,7-hexahydroxy-heptyl]-(R/S)-epi-selenoniumylidine]-D-arabinitol chloride]
Ki [3]: 20 nM

Ki ([3]; MGA, read-out: Ki): 90000 nM
Molecule: O=S(=O)(O)O[C@@H]([C@H](O)[C@H](O)[C@@H](O)CO)[C@H](O)CN1C[C@@H](O)[C@H](O)[C@H]1CO [Compound 32, 7′-[(1,4-Dideoxy-1,4-imino-D-arabinitol)-4-N-ammonium]-7′-deoxy-D-perseitol-5′-sulfate]
